# Laboratory results: ChEMBL document CHEMBL6177932 (J Med Chem, 2024)
# Active and inactive are the calls of the source. The calls are words filed in the database; no cut-off is given here.
# Experiments:
# B16-F10 [1] = assay: Inhibition of class 1 HDAC in mouse B16-F10 cells assessed as induction of H3K27 acetylation at 10 uM measured after 6 hrs by Western blot analysis; type: cell-based
# [2] = target: Histone deacetylase 9 (Homo sapiens) (UniProt Q9UKV0); assay: Inhibition of human HDAC9 at 100 uM using Boc-Lys(trifluoroacetyl)-AMC as substrate by fluorogenic assay
# Histone deacetylase 9 (Homo sapiens), sequence (Q9UKV0 whole entry): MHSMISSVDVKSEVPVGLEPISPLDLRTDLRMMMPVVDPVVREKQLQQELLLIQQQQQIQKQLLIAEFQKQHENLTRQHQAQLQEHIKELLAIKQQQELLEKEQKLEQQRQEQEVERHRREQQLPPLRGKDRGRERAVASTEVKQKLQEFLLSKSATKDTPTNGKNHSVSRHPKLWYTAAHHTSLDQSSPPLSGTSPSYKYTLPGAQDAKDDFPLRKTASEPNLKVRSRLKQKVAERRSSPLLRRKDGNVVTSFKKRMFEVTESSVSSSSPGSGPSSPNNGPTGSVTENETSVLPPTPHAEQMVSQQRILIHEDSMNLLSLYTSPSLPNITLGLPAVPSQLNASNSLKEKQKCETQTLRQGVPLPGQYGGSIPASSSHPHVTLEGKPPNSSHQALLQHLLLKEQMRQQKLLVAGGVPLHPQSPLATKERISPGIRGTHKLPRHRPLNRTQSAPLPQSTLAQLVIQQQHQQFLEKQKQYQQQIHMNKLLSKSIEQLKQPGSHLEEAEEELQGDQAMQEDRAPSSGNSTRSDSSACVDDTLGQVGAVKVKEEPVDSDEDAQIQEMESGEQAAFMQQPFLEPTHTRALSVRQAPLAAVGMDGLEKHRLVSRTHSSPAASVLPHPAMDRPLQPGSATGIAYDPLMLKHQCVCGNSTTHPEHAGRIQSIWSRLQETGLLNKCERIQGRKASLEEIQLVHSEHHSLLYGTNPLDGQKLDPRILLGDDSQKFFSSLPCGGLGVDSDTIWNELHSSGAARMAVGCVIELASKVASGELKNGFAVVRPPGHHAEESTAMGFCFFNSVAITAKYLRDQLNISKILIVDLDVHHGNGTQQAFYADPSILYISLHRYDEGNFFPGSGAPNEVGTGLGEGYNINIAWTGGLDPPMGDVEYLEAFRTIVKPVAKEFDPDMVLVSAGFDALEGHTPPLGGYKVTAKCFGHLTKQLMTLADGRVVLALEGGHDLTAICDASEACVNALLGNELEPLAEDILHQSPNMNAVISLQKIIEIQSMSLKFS
# [3] = target: T1, Protein deacetylase HDAC6 (Mus musculus) (UniProt Q9Z2V5); assay: Inhibition of HDAC6 in mouse B16-F10 cells assessed as induction of tubulin acetylation at 10 uM measured after 6 hrs by Western blot analysis; type: cell-based
# T1 sequence (whole entry): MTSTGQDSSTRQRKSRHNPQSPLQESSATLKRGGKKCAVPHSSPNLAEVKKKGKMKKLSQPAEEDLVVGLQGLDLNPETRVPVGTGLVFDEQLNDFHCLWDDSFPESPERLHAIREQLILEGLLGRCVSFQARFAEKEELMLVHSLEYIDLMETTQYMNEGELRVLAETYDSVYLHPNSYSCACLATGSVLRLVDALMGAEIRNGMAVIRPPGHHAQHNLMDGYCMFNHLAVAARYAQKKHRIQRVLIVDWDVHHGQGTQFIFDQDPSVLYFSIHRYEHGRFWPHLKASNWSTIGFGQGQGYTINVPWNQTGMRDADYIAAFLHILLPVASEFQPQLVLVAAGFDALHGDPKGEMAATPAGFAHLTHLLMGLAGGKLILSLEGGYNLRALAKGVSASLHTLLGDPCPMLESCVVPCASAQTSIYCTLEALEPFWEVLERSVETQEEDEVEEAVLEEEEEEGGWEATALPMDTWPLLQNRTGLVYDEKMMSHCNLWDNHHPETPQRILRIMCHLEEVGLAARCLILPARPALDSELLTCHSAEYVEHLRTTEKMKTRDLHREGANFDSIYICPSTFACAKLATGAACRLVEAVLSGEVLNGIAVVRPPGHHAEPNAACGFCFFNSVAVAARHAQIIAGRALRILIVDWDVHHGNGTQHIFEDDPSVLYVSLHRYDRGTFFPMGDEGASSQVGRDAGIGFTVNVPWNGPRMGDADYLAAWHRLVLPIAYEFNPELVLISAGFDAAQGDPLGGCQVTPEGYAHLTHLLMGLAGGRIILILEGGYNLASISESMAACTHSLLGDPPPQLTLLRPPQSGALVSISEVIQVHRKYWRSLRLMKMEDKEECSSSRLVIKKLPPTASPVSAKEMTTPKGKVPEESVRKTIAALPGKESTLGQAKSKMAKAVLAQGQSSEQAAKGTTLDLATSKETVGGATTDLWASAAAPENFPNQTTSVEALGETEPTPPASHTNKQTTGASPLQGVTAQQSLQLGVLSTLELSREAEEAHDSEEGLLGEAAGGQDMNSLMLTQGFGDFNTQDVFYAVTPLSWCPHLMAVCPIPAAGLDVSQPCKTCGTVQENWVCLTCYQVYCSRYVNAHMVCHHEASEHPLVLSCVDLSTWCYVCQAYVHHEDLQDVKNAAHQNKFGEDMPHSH
# Mus musculus [4] = assay: Immunomodulatory activity in mouse 4T1 cells implanted BALB/c mouse assessed as reduction in Cxcl10 gene expression at 1.5 to 5 mg/kg, ip administered daily for 18 days by RT-qPCR analysis; type: functional, organism-based; conditions: dose 1.5-5 mg/kg, time 18.0 day
# Mus musculus [5] = assay: Immunomodulatory activity in mouse 4T1 cells implanted BALB/c mouse assessed as reduction in total macrophage infiltration into tumors at 1.5 to 5 mg/kg, ip administered daily for 18 days by F4/80 staining based immunofluorescence microscopy; type: functional, organism-based; conditions: dose 1.5-5 mg/kg, time 18.0 day
# [6] = Toxicity in mouse B16-F10 cells implanted C57BL/6 mouse assessed as effect on body weight at 5 mg/kg, ip administered daily for 28 days; type: organism-based; conditions: in vivo, time 28 day
# B16-F10 [7] = assay: Inhibition of class 1 HDAC in mouse B16-F10 cells assessed as induction of H3K9 acetylation at 10 uM measured after 6 hrs by Western blot analysis; type: cell-based
# Mus musculus [8] = assay: Immunomodulatory activity in mouse 4T1 cells implanted BALB/c mouse assessed as reduction in Ccl20 gene expression at 1.5 to 5 mg/kg, ip administered daily for 18 days by RT-qPCR analysis; type: functional, organism-based; conditions: dose 1.5-5 mg/kg, time 18.0 day
# 4TO7 = assay: Inhibition of class 1 HDAC in mouse 4TO7 cells assessed as induction of H3K27 acetylation at 10 uM measured after 6 hrs by Western blot analysis; type: cell-based
# Mus musculus [9] = assay: Immunomodulatory activity in mouse 4T1 cells implanted BALB/c mouse assessed as reduction in Ccl2 gene expression at 1.5 to 5 mg/kg, ip administered daily for 18 days by RT-qPCR analysis; type: functional, organism-based; conditions: dose 1.5-5 mg/kg, time 18.0 day
# [10] = target: T2, Vitamin D3 receptor (Mus musculus) (UniProt P48281); assay: Agonist activity at VDR in mouse 4T1 cells assessed as induction of Cyp24a1 gene at 0.1 to 10 uM measured after 24 hrs by RT-qPCR analysis; type: cell-based; conditions: filed as agonist, dose 0.1-10 µM
# T2 sequence (whole entry): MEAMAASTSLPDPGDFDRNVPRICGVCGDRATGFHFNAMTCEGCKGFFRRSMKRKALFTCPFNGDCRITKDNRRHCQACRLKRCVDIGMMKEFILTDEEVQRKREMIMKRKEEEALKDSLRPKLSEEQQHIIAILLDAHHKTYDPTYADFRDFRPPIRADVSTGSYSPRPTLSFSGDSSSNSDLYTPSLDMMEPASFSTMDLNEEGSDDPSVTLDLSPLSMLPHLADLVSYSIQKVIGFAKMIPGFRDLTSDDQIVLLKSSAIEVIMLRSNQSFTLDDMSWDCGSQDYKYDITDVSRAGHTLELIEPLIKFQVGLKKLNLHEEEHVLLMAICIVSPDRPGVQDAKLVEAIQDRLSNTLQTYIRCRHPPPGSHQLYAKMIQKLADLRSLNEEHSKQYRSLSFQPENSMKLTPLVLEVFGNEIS
# [11] = target: T2, Vitamin D3 receptor (Mus musculus); assay: Agonist activity at VDR in mouse B16-F10 cells assessed as induction of Cyp24a1 gene at 1 to 10 uM measured after 24 hrs by RT-qPCR analysis; type: cell-based; conditions: filed as agonist, dose 1-10 µM
smiles,measurement,setting,value
CCC(CC)(c1ccc(C(=O)NCCCCC(=O)NO)cc1)c1ccc(OCC(O)C(C)(C)C)c(C)n1 (configuration not stated),inhibition,B16-F10 [1],Active; Acetylation Was Comparable Or Greater Than Saha
same,inhibition,[2],Not active; No Or Very Limited Inhibition Was Observed
same,inhibition,[3],Active; Acetylation Was Comparable Or Greater Than Saha
same,Activity,Mus musculus [4],Active
same,Activity,Mus musculus [5],Active; Significantly Reduced Macrophage Infiltration Into Tumor
same,Activity,[6],Non-toxic
same,inhibition,B16-F10 [7],Active; Acetylation Was Comparable Or Greater Than Saha
same,Activity,Mus musculus [8],Active
same,inhibition,4TO7,Active; Induced Higher Levels Of Acetylation Than Saha
same,Activity,Mus musculus [9],Active
same,Activity,[10],Active
same,Activity,[11],Active
